Test results as given in patent publication US11064704B2, “Natural product formulations with improved residual insect repellent/deterrent activity” (University of Mississippi, priority 2016, dated 2021).

Experiments:
Aedes aegypti females [1] = assay: in vitro A&K (Ali and Khan) repellent bioassay; assay type: in vivo; settings: for residual repellent activity: time post treatment within range of MED: 11.7 μg/cm^2; for residual repellent activity: time post treatment up to which active / after which MED limit crossed: 23.4 μg/cm^2
Text: The A&K (Ali and Khan) bioassay system is based on the concept that the mosquitoes are attracted to warm temperatures, and this system uses warm temperature to serve as stimulus for landing and feeding. The details of the A&K bioassay systems are given in Ali et al. (2017).
In summary, this in vitro system consisted of a 30×30×30 cm collapsible aluminum cage (Model 1450B, BioQuip Products, 2321 Gladwick Street, Rancho Dominguez, Calif. 90220, USA) with metal screens. On one panel of the cage, metal screen was replaced with a clear acrylic transparent sheet. […] The blood box had three sides covered with acrylic sheet while the front side was open to insert the feeding device. […] The sliding door served to contain the females inside the cage when the feeding device was pulled out for loading the treatment. This door was slid open when the feeding device was pushed in during the bioassay to expose the females to the treatment.
The feeding device had one 3×4 cm rectangular reservoir that contained the feeding solution. The feeding device was connected to the water circulator. The reservoir of the feeding device with feeding solution was covered with a chemical treated collagen sheet. To observe the landing and feeding of female mosquitoes, feeding solution in the reservoir was heated to match the human body temperature using a water circulator which was set at 37° C. The feeding solution had 3-4° C. higher temperature than the solid platform, and this increased temperature of the feeding solution became a better source of attraction and preference for the mosquitoes than the other parts of the feeding device.
The rectangular reservoir of the feeding device was filled with the CPDA 1+ATP solution having a few drops of green fluorescent traceable water-soluble dye to serve as a feeding source. A test was started when the 3×4 cm marked areas of collagen were treated with the desired chemical in a volume of 50 μL/[…]. The treated collagen sheet was then secured on the reservoir using a thin layer of high vacuum grease (Dow Corning Corporation, Midland, Mich. 48686). The feeding device was then pushed into the blood box and the sliding door was opened to expose females to the treatment.
Stock solutions were made in ethanol. All the dilutions were made in EtOH and applied in a volume of 50 μL covering […] of the collagen sheet. Minimum effective dosage (MED) values in this in vitro bioassay were determined using a method described by Katritzky et al. (2010).
The cage contained 200±10, 8-18 day old female mosquitoes. The number of mosquitoes landing and biting were recorded visually for 1 minute. Three or four cages were used at a time, and one treatment was evaluated in a single cage. The minimum dose at which 2 or less mosquitoes (i.e. less than or equal to 1% of 200 females in the cage) started feeding in 1 minute was the minimum effective dose (“MED”). Continuous exposure of the mosquitoes in the cage can result in reduced landing and biting, therefore, 3-4 cages were used and only one replication was completed for each chemical in a single cage. To ensure accuracy of the treatment, rectangular areas of (3×4 cm (12 cm^2) or 7.5×4 cm (30 cm^2) were marked on the collagen that matched the measurement of the rectangular liquid reservoirs. Treatments were applied in a volume of 50 μL (12 cm^2 area) or 107 μL (30 cm^2 area). Treated collagen sheets were secured on a feeding reservoir containing CPDA-1+ATP solution using a thin layer of grease (Dow Corning Corp, Midland, Mich.). The feeding device was pushed inside the blood box and the sliding door was […] to expose the females to the treatment.
To ensure the normal activity (≥10% landing), control treatment was repeated after every 5 replications, and the bioassay was stopped if the response was less than the control. The data is presented as MED values with the mean percentage biting (±SEM) in parenthesis. […]

[2] = test system: Anopheles quadrimaculatus females; assay: in vivo cloth patch repellent bioassay
Protocol: (§1) Cloth patch bioassays were conducted by using in vivo bioassay system described by Katritzky et al. (2008, 2010), with minor modifications. Approximately 500 (±5%) mosquitoes, consisting primarily of females, were transferred into a test cage (45×45×45 cm) using an aspirator. A series of dosages of test compounds were tested to determine MED for repellency of the mosquitoes. MED refers to a concentration of the compound at which biting is less than or equal to 1% (i.e. less than or equal to 5 out of 500 females in the cage) during a 1 minute exposure time. A series of concentrations ranging between 6.25 to 100 μg/cm^2 were tested in the A&K bioassay.
(§2) A single test consisted of covering the hand of a volunteer with a soft-embossed long cuff poly glove (Atlantis Products, Mankato, Minn.), then by a powder-free latex glove (Diamond Grip, Microflex Corporation, Reno, Nev.). The arm was then covered with a knee high stocking (Leggs® Everyday Knee Highs, Winston-Salem N.C. 27102) to avoid the contact of treated muslin cloth with the skin. A plastic sleeve constructed of polyvinyl was then placed around the arm. Velcro strips were used to fix the plastic sleeve around the arm. About half-way between the wrist and elbow, a 4×7.5 cm slit in the plastic sleeve was used to assess mosquito landing and biting behavior. This opening permitted the attractive odors from the skin surface to emanate out and attract mosquitoes through this opening. During testing, this 30 cm^2 open area was covered with a piece of treated muslin cloth. Because of constraint of man power, only one volunteer who was provided written informed consent participated in this study. A protocol approved by the University of Mississippi Human Use Institutional Review Board (IRB protocol #15-070) was followed.
(§3) Stock solutions with concentration of 80 μg/ul were prepared in ethanol. Concentrations ranging between 6.25 to 100 μg/cm^2 were selected for testing based on previous experience of the inventors with the A&K bioassay. A piece of muslin cloth measuring 8×13 cm in size was used. An area of 4×7.5 cm was marked in the center of muslin cloth. Approximately 2.5×7 cm pieces of cardboard were attached by staples on the sides of the muslin cloth. Treatments were applied to the marked area of the cloth in 215 μL volume using a pipetter. After drying, the treated muslin cloth was secured on the opening of the plastic sleeve by using an adhesive tape.
(§4) The test started when the arm with sleeve and treated muslin cloth was inserted into the mosquito cage. […] Residual activity was determined by exposing the females to the treated muslin cloth at an interval of 30 minutes. The treated muslin patch was kept on the arm after the initial treatment and tested every half an hour thereafter.
(§5) Testing started at the highest dose (100 μg/cm^2) and the dose was lowered to reach the MED. Because the mosquitoes show reduced behavioral activity upon repeated exposure to repellent odors from the arm, after 5 successive exposures of the treatments, the caged mosquitoes were allowed a 15 min recovery period.

Aedes albopictus females = assay: in vivo cloth patch repellent bioassay
Protocol: as §1, §2, §3, §4, §5

Aedes aegypti females [3] = assay: in vivo cloth patch repellent bioassay; settings: for residual repellent activity: time post treatment at which activity lost: 12.5 μg/cm^2; for minimum effective dose (MED): cloth patch, 1 minute exposure
Protocol: as §1, §2, §3, §4, §5

[4] = 12 cm^2 surface area, Table 7/FIG. 7
[5] = Table 13/FIG. 13, mixtures 6.25+6.25 μg/cm^2 versus individual applications, species not given

CCN(CC)C(=O)c1cccc(C)c1 [DEET, N,N-diethyl-meta-toluamide, reference compound]
residual repellent activity: time post treatment within range of MED (Aedes aegypti females [1]): 30 min | residual repellent activity: time post treatment up to which active / after which MED limit crossed (Aedes aegypti females [1]): 120 min | minimum effective dose (MED) (Aedes aegypti females [1]; [4]): 11.7 μg/cm^2 | minimum effective dose (MED) (Aedes aegypti females [1]; [5]): 25 μg/cm^2 | minimum effective dose (MED) [2]: 6.25 μg/cm^2 | minimum effective dose (MED) (Aedes albopictus females): 12.5 μg/cm^2 | residual repellent activity: time post treatment at which activity lost (Aedes aegypti females [3]): 30 min | minimum effective dose (MED) (Aedes aegypti females [3]): 12.5 μg/cm^2

CC1=CC[C@]2(C)CC[C@@H](C(C)C)[C@]2(O)CC1 [carotol]
residual repellent activity: time post treatment within range of MED (Aedes aegypti females [1]): failed | residual repellent activity: time post treatment up to which active / after which MED limit crossed (Aedes aegypti females [1]): 60 min | residual repellent activity: time post treatment up to which active (Aedes aegypti females [1]; 46.9 μg/cm^2): 120 min | minimum effective dose (MED) (Aedes aegypti females [1]; [4]): 11.7 μg/cm^2 | minimum effective dose (MED) (Aedes aegypti females [1]; [5]): 25 μg/cm^2 | repellent activity (Aedes aegypti females [1]; compared with DEET): comparable to DEET | minimum effective dose (MED) [2]: 6.25 μg/cm^2 | minimum effective dose (MED) (Aedes albopictus females): 12.5 μg/cm^2 | residual repellent activity: time post treatment at which activity lost (Aedes aegypti females [3]): failed | residual repellent activity like DEET: time post treatment up to (Aedes aegypti females [3]; 25 μg/cm^2): 120 min | residual repellent activity like DEET: time post treatment up to (Aedes aegypti females [3]; 50 μg/cm^2): 120 min | minimum effective dose (MED) (Aedes aegypti females [3]): 25 μg/cm^2
